Structures can show the parent of a compound that is named as a salt.
Assays:
[1] = tested on: mice; experiment: Acute toxicity, intravenous; assay type: in vivo
Protocol: The acute toxicity of the sodium salt of Antibiotic SB-72310 is low, with no deaths being encountered when 500 mg/kg of the salt was administered to mice by the intravenous route.

[2] = Solubility in solvents; assay type: physicochemical
[3] = Stability in aqueous solution; assay type: physicochemical
Protocol: 12. Stability: Stable in aqueous solution in the range of pH 3 to 7 at 60° C. for 10 minute heating; unstable over pH 8.5.
10. Stability: Stable in aqueous solution in the range of pH 3 to 7 at 60° C. for 10 minute heating; unstable over pH 8.5.

[4] = tested on: Alcaligenes faecalis IFO 13111; experiment: Antimicrobial spectrum, paper disk method; assay type: cell-based; details: IFO13111, 25 μl of 10 mg/ml in 8 mm paper disks, Trypticasesoy-broth-agar, read-out: Inhibition diameter
Protocol: (§1) The biological characteristics of SB-72310 are as follows.
(§2) Antimicrobial spectra of SB-72310(Inhibition diameter (mm)
(§3) by paper disk method) (25 μl of test solution of 10 mg/ml
(§4) is absorbed in paper disks of 8 mm diameter)
(§5) Medium = Trypticasesoy-broth-agar

[5] = tested on: Bacillus cereus IFO 3466; experiment: Antimicrobial spectrum, paper disk method; assay type: cell-based; details: IFO3466, 25 μl of 10 mg/ml in 8 mm paper disks, Trypticasesoy-broth-agar, read-out: Inhibition diameter
Protocol: as §1, §2, §3, §4, §5

[6] = tested on: Bacillus subtilis IFO 3513; experiment: Antimicrobial spectrum, paper disk method; assay type: cell-based; details: IFO3513, 25 μl of 10 mg/ml in 8 mm paper disks, Trypticasesoy-broth-agar, read-out: Inhibition diameter
Protocol: as §1, §2, §3, §4, §5

[7] = tested on: Comamonas terrigena IFD 12685; experiment: Antimicrobial spectrum, paper disk method; assay type: cell-based; details: IFD12685, 25 μl of 10 mg/ml in 8 mm paper disks, Trypticasesoy-broth-agar, read-out: Inhibition diameter
Protocol: as §1, §2, §3, §4, §5

[8] = tested on: Escherichia coli NIHJ JC-2; experiment: Antimicrobial spectrum, paper disk method; assay type: cell-based; details: NIHJJC2, 25 μl of 10 mg/ml in 8 mm paper disks, Trypticasesoy-broth-agar, read-out: Inhibition diameter
Protocol: as §1, §2, §3, §4, §5

[9] = tested on: Klebsiella pneumoniae IFO 3318; experiment: Antimicrobial spectrum, paper disk method; assay type: cell-based; details: IFO3318, 25 μl of 10 mg/ml in 8 mm paper disks, Trypticasesoy-broth-agar, read-out: Inhibition diameter
Protocol: as §1, §2, §3, §4, §5

[10] = tested on: Proteus mirabilis IFO 3849; experiment: Antimicrobial spectrum, paper disk method; assay type: cell-based; details: IFO3849, 25 μl of 10 mg/ml in 8 mm paper disks, Trypticasesoy-broth-agar, read-out: Inhibition diameter
Protocol: as §1, §2, §3, §4, §5

[11] = tested on: Proteus vulgaris IFO 3045; experiment: Antimicrobial spectrum, paper disk method; assay type: cell-based; details: IFO3045, 25 μl of 10 mg/ml in 8 mm paper disks, Trypticasesoy-broth-agar, read-out: Inhibition diameter
Protocol: as §1, §2, §3, §4, §5

[12] = tested on: Pseudomonas fluorescens IFO 3081; experiment: Antimicrobial spectrum, paper disk method; assay type: cell-based; details: IFO3081, 25 μl of 10 mg/ml in 8 mm paper disks, Trypticasesoy-broth-agar, read-out: Inhibition diameter
Protocol: as §1, §2, §3, §4, §5

[13] = tested on: Salmonella typhimurium IFO 12529; experiment: Antimicrobial spectrum, paper disk method; assay type: cell-based; details: Salmonella enterica, 25 μl of 10 mg/ml in 8 mm paper disks, Trypticasesoy-broth-agar, read-out: Inhibition diameter
Protocol: as §1, §2, §3, §4, §5

[14] = tested on: Sarcina lutea IFO 3232; experiment: Antimicrobial spectrum, paper disk method; assay type: cell-based; details: Micrococcus luteus, IFO3232, 25 μl of 10 mg/ml in 8 mm paper disks, Trypticasesoy-broth-agar, read-out: Inhibition diameter
Protocol: as §1, §2, §3, §4, §5

[15] = tested on: Serratia marcescens IFO 12648; experiment: Antimicrobial spectrum, paper disk method; assay type: cell-based; details: IFO12648, 25 μl of 10 mg/ml in 8 mm paper disks, Trypticasesoy-broth-agar, read-out: Inhibition diameter
Protocol: as §1, §2, §3, §4, §5

[16] = tested on: Staphylococcus aureus FDA 209P; experiment: Antimicrobial spectrum, paper disk method; assay type: cell-based; details: FDA209P, 25 μl of 10 mg/ml in 8 mm paper disks, Trypticasesoy-broth-agar, read-out: Inhibition diameter
Protocol: as §1, §2, §3, §4, §5

[17] = tested on: gram-positive bacteria; experiment: Antibacterial activity against gram-positive bacteria; assay type: cell-based; details: paper disk method, Table 2
Protocol: as §1, §2, §3, §4, §5

[18] = tested on: gram-negative bacteria; experiment: Antibacterial activity against gram-negative bacteria; assay type: cell-based; details: paper disk method, Table 2
Protocol: as §1, §2, §3, §4, §5

[19] = Basicity, neutrality or acidity; assay type: physicochemical
[20] = aqueous solution, pH 3 to 7, 60° C., 10 minute heating

COC1(NC(=O)C(C)NC(=O)CCC(N)C(=O)O)CN(S(=O)(=O)O)C1=O (stereo not shown) [SB-72310 sodium salt]
Acute toxicity [1]: low
Deaths ([1]; 500 mg/kg): no deaths
Solubility in solvents ([2]; acetone): Insoluble
Solubility in solvents ([2]; benzene): Insoluble
Solubility in solvents ([2]; chloroform): Insoluble
Solubility in solvents ([2]; diethyl ether): Insoluble
Solubility in solvents ([2]; dimethylsulfoxide): soluble
Solubility in solvents ([2]; ethanol): sparingly soluble
Solubility in solvents ([2]; ethyl acetate): Insoluble
Solubility in solvents ([2]; hexane): Insoluble
Solubility in solvents ([2]; methanol): sparingly soluble
Solubility in solvents ([2]; petroleum ether): Insoluble
Solubility in solvents ([2]; pyridine): sparingly soluble
Solubility in solvents ([2]; water): readily soluble
Stability [3, 20]: Stable
Stability ([3]; over pH 8.5): unstable

COC1(NC(=O)C(C)NC(=O)CCC(N)C(=O)O)CN(S(=O)(=O)O)C1=O (stereo not shown) [SB-72310]
zone of inhibition at 10000 µg/mL [4]: 23 mm
zone of inhibition at 10000 µg/mL [5]: 14.5 mm
zone of inhibition at 10000 µg/mL [6]: 22 mm
zone of inhibition at 10000 µg/mL [7]: 25 mm
zone of inhibition at 10000 µg/mL [8]: 14.5 mm
zone of inhibition at 10000 µg/mL [9]: 12.5 mm
zone of inhibition at 10000 µg/mL [10]: 19 mm
zone of inhibition at 10000 µg/mL [11]: 18 mm
zone of inhibition at 10000 µg/mL [12]: 12.5 mm
zone of inhibition at 10000 µg/mL [13]: 18.5 mm
zone of inhibition at 10000 µg/mL [14]: 23 mm
zone of inhibition at 10000 µg/mL [15]: 17 mm
zone of inhibition at 10000 µg/mL [16]: 18.5 mm
Activity against gram-positive bacteria [17]: active
Activity against gram-negative bacteria [18]: active
Solubility in solvents ([2]; acetone): sparingly soluble
Solubility in solvents ([2]; benzene): Insoluble
Solubility in solvents ([2]; chloroform): Insoluble
Solubility in solvents ([2]; diethyl ether): Insoluble
Solubility in solvents ([2]; dimethylsulfoxide): soluble
Solubility in solvents ([2]; ethanol): sparingly soluble
Solubility in solvents ([2]; ethyl acetate): Insoluble
Solubility in solvents ([2]; hexane): Insoluble
Solubility in solvents ([2]; methanol): soluble
Solubility in solvents ([2]; petroleum ether): Insoluble
Solubility in solvents ([2]; pyridine): sparingly soluble
Solubility in solvents ([2]; water): readily soluble
Stability [3, 20]: Stable
Stability ([3]; over pH 8.5): unstable
Basicity, neutrality or acidity [19]: Acid
